Reference: the supplement of paper PMC11061612

Experiments:
Carboplatin = compound: C1CC(C1)(C(=O)[O-])C(=O)[O-].N.N.[Pt+2] [Carboplatin]; details: max 10 µM
Summary of the method: (§1)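 Cancer cell lines were seeded in 1536-well plates in 7.5 μl DMEM/F12 or RPMI with 10% FBS, held 24 hours at 37°C and 5% CO2, then dosed for 72 hours (final DMSO typically 0.2%). Viability was read by CellTiter-Glo 2.0 luminescence and scaled between blank-well and DMSO-well means. The single-agent IC50 comes from dose responses fitted to a two-parameter logistic curve with a non-linear mixed effects model.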

AZD5363 = compound: C1CN(CCC1(C(=O)N[C@@H](CCO)C2=CC=C(C=C2)Cl)N)C3=NC=NC4=C3C=CN4 [AZD5363]; details: max 10 µM
Summary of the method: as §1

AZD1775 = compound: C=CCn1c(=O)c2cnc(Nc3ccc(N4CCN(C)CC4)cc3)nc2n1-c1cccc(C(C)(C)O)n1 [AZD1775]; details: max 3 µM
Summary of the method: as §1

Trametinib = compound: CC(=O)Nc1cccc(-n2c(=O)n(C3CC3)c(=O)c3c(Nc4ccc(I)cc4F)n(C)c(=O)c(C)c32)c1 [Trametinib]; details: max 1 µM
Summary of the method: as §1

Paclitaxel = compound: CC(=O)O[C@H]1C(=O)[C@@]2(C)[C@H]([C@H](OC(=O)c3ccccc3)[C@]3(O)C[C@H](OC(=O)[C@H](O)[C@@H](NC(=O)c4ccccc4)c4ccccc4)C(C)=C1C3(C)C)[C@]1(OC(C)=O)CO[C@@H]1C[C@@H]2O [Paclitaxel]; details: max 3 µM
Summary of the method: as §1

Palbociclib = compound: CC(=O)c1c(C)c2cnc(Nc3ccc(N4CCNCC4)cn3)nc2n(C2CCCC2)c1=O [Palbociclib]; details: max 10 µM
Summary of the method: as §1

AZD1390 = compound: CC(C)n1c(=O)n(C)c2cnc3cc(F)c(-c4ccc(OCCCN5CCCCC5)nc4)cc3c21 [AZD1390]; details: max 0.3 µM
Summary of the method: as §1

Venetoclax = compound: CC1(C)CCC(CN2CCN(c3ccc(C(=O)NS(=O)(=O)c4ccc(NCC5CCOCC5)c([N+](=O)[O-])c4)c(Oc4cnc5[nH]ccc5c4)c3)CC2)=C(c2ccc(Cl)cc2)C1 [Venetoclax]; details: max 1 µM
Summary of the method: as §1

Dasatinib = compound: CC1=C(C(=CC=C1)Cl)NC(=O)C2=CN=C(S2)NC3=CC(=NC(=N3)C)N4CCN(CC4)CCO [Dasatinib]; details: max 2 µM
Summary of the method: as §1

SG3199 = compound: CC1=CN2[C@@H](C1)C=NC3=CC(=C(C=C3C2=O)OC)OCCCCCOC4=C(C=C5C(=C4)N=C[C@@H]6CC(=CN6C5=O)C)OC [SG3199]; details: max 0.001 µM
Summary of the method: as §1

AZD2811 = compound: CCN(CCO)CCCOc1ccc2c(Nc3cc(CC(=O)Nc4cccc(F)c4)[nH]n3)ncnc2c1 [AZD2811]; details: max 1 µM
Summary of the method: as §1

SN-38 = compound: CCc1c2c(nc3ccc(O)cc13)-c1cc3c(c(=O)n1C2)COC(=O)[C@]3(O)CC [SN-38]; details: max 0.3 µM
Summary of the method: as §1

AZD0156 = compound: CN(C)CCCOc1ccc(-c2ccc3ncc4c(c3c2)n(C2CCOCC2)c(=O)n4C)cn1 [AZD0156]; details: max 3 µM
Summary of the method: as §1

AZD4320 = compound: CN(CC[C@H](CSC1=CC=CC=C1)NC2=C(C=C(C=C2)S(=O)(=O)NC(=O)C3=CC=C(C=C3)N4CCC(CC4)[C@H](C5=CC=CC=C5C6=CC=C(C=C6)Cl)O)S(=O)(=O)C(F)(F)F)CCO [AZD4320]; details: max 1 µM
Summary of the method: as §1

Alisertib = compound: COc1cc(Nc2ncc3c(n2)-c2ccc(Cl)cc2C(c2c(F)cccc2OC)=NC3)ccc1C(=O)O [Alisertib]; details: max 10 µM
Summary of the method: as §1

Etoposide = compound: COc1cc([C@@H]2c3cc4c(cc3[C@@H](O[C@@H]3O[C@@H]5CO[C@@H](C)O[C@H]5[C@H](O)[C@H]3O)[C@H]3COC(=O)[C@H]23)OCO4)cc(OC)c1O [Etoposide]; details: max 10 µM
Summary of the method: as §1

Gefitinib = compound: COc1cc2ncnc(Nc3ccc(F)c(Cl)c3)c2cc1OCCCN1CCOCC1 [Gefitinib]; details: max 10 µM
Summary of the method: as §1

Prexasertib = compound: COc1cccc(OCCCN)c1-c1cc(Nc2cnc(C#N)cn2)n[nH]1 [Prexasertib]; details: max 1 µM
Summary of the method: as §1

Doxorubicin = compound: COc1cccc2c1C(=O)c1c(O)c3c(c(O)c1C2=O)C[C@@](O)(C(=O)CO)C[C@@H]3O[C@H]1C[C@H](N)[C@H](O)[C@H](C)O1 [Doxorubicin]; details: max 1 µM
Summary of the method: as §1

AZD5153 = compound: COc1nnc2ccc(N3CCC(c4ccc(OCCN5CCN(C)C(=O)[C@H]5C)cc4)CC3)nn12 [AZD5153]; details: max 1 µM
Summary of the method: as §1

Lapatinib = compound: CS(=O)(=O)CCNCc1ccc(-c2ccc3ncnc(Nc4ccc(OCc5cccc(F)c5)c(Cl)c4)c3c2)o1 [Lapatinib]; details: max 10 µM
Summary of the method: as §1

AZD8186 = compound: C[C@@H](Nc1cc(F)cc(F)c1)c1cc(C(=O)N(C)C)cc2c(=O)cc(N3CCOCC3)oc12 [AZD8186]; details: max 10 µM
Summary of the method: as §1

Crizotinib = compound: C[C@@H](Oc1cc(-c2cnn(C3CCNCC3)c2)cnc1N)c1c(Cl)ccc(F)c1Cl [Crizotinib]; details: max 10 µM
Summary of the method: as §1

Savolitinib = compound: C[C@@H](c1ccc2nccn2c1)n1nnc2ncc(-c3cnn(C)c3)nc21 [Savolitinib]; details: max 1 µM
Summary of the method: as §1

AZD6738 = compound: C[C@@H]1COCCN1C2=NC(=NC(=C2)C3(CC3)[S@](=N)(=O)C)C4=C5C=CNC5=NC=C4 [AZD6738]; details: max 10 µM
Summary of the method: as §1

AZD5991 = compound: Cc1c2c(nn1C)CSCc1cc(n(C)n1)CSc1cc(c3ccccc3c1)OCCCc1c(C(=O)O)n(C)c3c-2c(Cl)ccc13 [AZD5991]; details: max 1 µM
Summary of the method: as §1

AZD7648 = compound: Cc1cc2ncnn2cc1Nc1ncc2c(n1)n(C1CCOCC1)c(=O)n2C [AZD7648]; details: max 10 µM
Summary of the method: as §1

Taselisib = compound: Cc1nc(-c2cn3c(n2)-c2ccc(-c4cnn(C(C)(C)C(N)=O)c4)cc2OCC3)n(C(C)C)n1 [Taselisib]; details: max 10 µM
Summary of the method: as §1

Selumetinib = compound: Cn1cnc2c(F)c(Nc3ccc(Br)cc3Cl)c(C(=O)NOCCO)cc21 [Selumetinib]; details: max 10 µM
Summary of the method: as §1

SRA737 = compound: N#Cc1cnc(Nc2cc(NC[C@H]3CNCCO3)c(C(F)(F)F)cn2)cn1 [SRA737]; details: max 10 µM
Summary of the method: as §1

MK-2206 = compound: NC1(c2ccc(-c3nc4ccn5c(=O)[nH]nc5c4cc3-c3ccccc3)cc2)CCC1 [MK-2206]; details: max 10 µM
Summary of the method: as §1

Gemcitabine = compound: Nc1ccn([C@@H]2O[C@H](CO)[C@@H](O)C2(F)F)c(=O)n1 [Gemcitabine]; details: max 0.3 µM
Summary of the method: as §1

[1] = compound: O=C(Nc1ccc2[nH]nc(-c3ccncc3)c2c1)[C@@H]1CCN(CC(=O)N2CCN(c3ccc(-c4ncccn4)cc3)CC2)C1; details: max 5 µM
Summary of the method: as §1

Olaparib = compound: O=C(c1cc(Cc2n[nH]c(=O)c3ccccc23)ccc1F)N1CCN(C(=O)C2CC2)CC1 [Olaparib]; details: max 10 µM
Summary of the method: as §1

5-Fluorouracil = compound: O=c1[nH]cc(F)c(=O)[nH]1 [5-Fluorouracil]; details: max 20 µM
Summary of the method: as §1

Row | Cell Line | IC50, cell viability 72 h (Carboplatin) [nM] | IC50, cell viability 72 h (AZD5363) [nM] | IC50, cell viability 72 h (AZD1775) [nM] | IC50, cell viability 72 h (Trametinib) [nM] | IC50, cell viability 72 h (Paclitaxel) [nM] | IC50, cell viability 72 h (Palbociclib) [nM] | IC50, cell viability 72 h (AZD1390) [nM] | IC50, cell viability 72 h (Venetoclax) [nM] | IC50, cell viability 72 h (Dasatinib) [nM] | IC50, cell viability 72 h (SG3199) [nM] | IC50, cell viability 72 h (AZD2811) [nM] | IC50, cell viability 72 h (SN-38) [nM] | IC50, cell viability 72 h (AZD0156) [nM] | IC50, cell viability 72 h (AZD4320) [nM] | IC50, cell viability 72 h (Alisertib) [nM] | IC50, cell viability 72 h (Etoposide) [nM] | IC50, cell viability 72 h (Gefitinib) [nM] | IC50, cell viability 72 h (Prexasertib) [nM] | IC50, cell viability 72 h (Doxorubicin) [nM] | IC50, cell viability 72 h (AZD5153) [nM] | IC50, cell viability 72 h (Lapatinib) [nM] | IC50, cell viability 72 h (AZD8186) [nM] | IC50, cell viability 72 h (Crizotinib) [nM] | IC50, cell viability 72 h (Savolitinib) [nM] | IC50, cell viability 72 h (AZD6738) [nM] | IC50, cell viability 72 h (AZD5991) [nM] | IC50, cell viability 72 h (AZD7648) [nM] | IC50, cell viability 72 h (Taselisib) [nM] | IC50, cell viability 72 h (Selumetinib) [nM] | IC50, cell viability 72 h (SRA737) [nM] | IC50, cell viability 72 h (MK-2206) [nM] | IC50, cell viability 72 h (Gemcitabine) [nM] | IC50, cell viability 72 h [1] [nM] | IC50, cell viability 72 h (Olaparib) [nM] | IC50, cell viability 72 h (5-Fluorouracil) [nM]
1 | NCI-H520 (Squamous Cell Lung Carcinoma) | > 10000 | 4010 | 1030 | > 1000 | 43.1 | 4770 | > 300 | > 1000 | > 2000 | > 1 | > 1000 | 46 | > 3000 | > 1000 | 8620 | > 10000 | > 10000 | 44.3 | > 1000 | 923 | > 10000 | 4990 | > 10000 | > 1000 | 7340 | > 1000 | > 10000 | 2340 | > 10000 | > 10000 | 1870 | 93.6 | > 5000 | > 10000 | > 20000
2 | NCI-H526 (Small Cell Lung Carcinoma) | > 10000 | > 10000 | 642 | > 1000 | 9.08 | > 10000 | > 300 | 246 | > 2000 | > 1 | > 1000 | 2.57 | > 3000 | 43.4 | 9420 | 713 | > 10000 | 83.8 | 107 | 80.1 | > 10000 | > 10000 | 7940 | > 1000 | 10000 | > 1000 | > 10000 | > 10000 | > 10000 | > 10000 | > 10000 | 251 | > 5000 | > 10000 | 12800
3 | NCI-H929 (Plasma Cell Myeloma) | > 10000 | 106 | 1060 | 32.9 | 4.54 | > 10000 | > 300 | > 1000 | > 2000 | > 1 | > 1000 | 13.1 | 1150 | > 1000 | > 10000 | 1250 | > 10000 | 179 | 548 | 13.4 | > 10000 | 728 | 982 | > 1000 | 5410 | 17.5 | 2270 | 23.6 | 3130 | > 10000 | 69.9 | 12.1 | 981 | > 10000 | 7150
4 | NCI-H2731 (Mesothelioma) | > 10000 | > 10000 | > 3000 | > 1000 | 1780 | > 10000 | > 300 | > 1000 | > 2000 | > 1 | > 1000 | > 300 | > 3000 | > 1000 | > 10000 | > 10000 | > 10000 | > 1000 | > 1000 | > 1000 | > 10000 | > 10000 | > 10000 | > 1000 | > 10000 | > 1000 | > 10000 | > 10000 | > 10000 | > 10000 | > 10000 | > 300 | > 5000 | > 10000 | > 20000
5 | NCI-H3122 (Lung Adenocarcinoma) | > 10000 | > 10000 | > 3000 | 58.9 | 9.01 | 2580 | > 300 | > 1000 | > 2000 | > 1 | > 1000 | 17.7 | > 3000 | > 1000 | > 10000 | > 10000 | > 10000 | 315 | 237 | 612 | > 10000 | > 10000 | 323 | > 1000 | 7460 | > 1000 | > 10000 | 1080 | 7820 | > 10000 | 7950 | 32 | 958 | > 10000 | > 20000
